{"source": "patent US20230028539A1", "about": "“PHARMACEUTICAL COMPOSITION, COMPLEMENTARY KIT AND APPLICATION THEREOF” (SHANGHAI PHARMACEUTICALS HOLDING CO., LTD., priority 2019, published 2023)", "key": {"[1]": {"target": "T1, MAO-B (Homo sapiens, UniProt P27338)", "T1 sequence (P27338 1-520)": "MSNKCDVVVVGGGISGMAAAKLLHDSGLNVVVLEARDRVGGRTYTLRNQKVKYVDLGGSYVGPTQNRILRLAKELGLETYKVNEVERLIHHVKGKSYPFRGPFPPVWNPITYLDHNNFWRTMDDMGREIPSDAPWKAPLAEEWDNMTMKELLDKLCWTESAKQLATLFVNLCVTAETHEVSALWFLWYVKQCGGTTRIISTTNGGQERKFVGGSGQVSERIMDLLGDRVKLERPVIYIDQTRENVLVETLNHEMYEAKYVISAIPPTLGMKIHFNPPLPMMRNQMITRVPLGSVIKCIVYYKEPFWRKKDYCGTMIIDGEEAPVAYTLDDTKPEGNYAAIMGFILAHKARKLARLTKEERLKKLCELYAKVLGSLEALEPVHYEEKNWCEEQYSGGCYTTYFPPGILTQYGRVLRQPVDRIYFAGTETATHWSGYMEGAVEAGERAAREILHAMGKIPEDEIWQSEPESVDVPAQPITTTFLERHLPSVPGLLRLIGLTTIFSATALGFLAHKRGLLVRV", "conditions": "cited from earlier work; for inhibitory strength to MAO-B than that to MAO-A: selectivity MAO-B over MAO-A"}, "[2]": {"tested_on": "6-OHDA-induced unilateral damage PD model", "test": "Apomorphine-induced contralateral circling test in 6-OHDA-induced rat Parkinson's disease model", "format": "in vivo, male Wistar rat", "conditions": "after 29 days of treatment, FIG. 3", "procedure": "3.1.2 The animals were injected intraperitoneally with APO (0.5 mg/kg, 2 mL/kg) 3 minutes before testing.\n3.1.3 The animals were placed in a circular test box after dosing. Changes in animal behavior were observed and recorded by Ethovi si on video software, and the number of revolutions of each animal within 30 min was counted manually.\n3.1.4 APO-induced circling behavior: The animal circled rightwards with the left hind limb as the fulcrum. One turn was counted as one revolution by taking the head of the rat as a reference. Animals with more than 180 revolutions within 30 min were qualified rat Parkinson's disease models.\n3.2.1 140 animals were randomly selected, and intramuscularly injected with Zoletil at 30 mg/kg in combination with 3 mg/kg of xylazine hydrochloride for general anesthesia before the operation.\n3.2.7 The injection of 6-OHDA was started 2 min after the needle reached the designated depth. […]\n3.3.3 The animals were placed in a circular test box after dosing. Changes in animal behavior were observed and recorded by Ethovision video software, and the number of revolutions of each animal within 30 min was counted manually.\n3.3.4 APO-induced circling behavior: The animal circled rightwards with the left hind limb as the fulcrum. One turn was counted as one revolution by taking the head of the rat as a reference. […]"}, "[3]": {"tested_on": "MPTP-induced mouse Parkinson's disease model", "test": "MPTP-induced mouse Parkinson's disease model, dopamine content in dorsal striatum by LC-MS", "format": "in vivo, male C57BL/6J mice", "procedure": "Animals in control group were injected with an equal volume of […]. After 6 weeks, mice were euthanized and the dorsal striatum was separated after normal saline perfusion, weighed and preserved in a −80° C. freezer. The content of dopamine in dorsal striatal was determined by LC-MS. [table]"}, "[4]": {"tested_on": "patients with early PD", "conditions": "24 weeks, cited from earlier work"}}, "note": "Where two headings read alike, the source gives them in different places."}
{"compound": "C#CCN[C@@H]1CCc2ccccc21", "note": "[rasagiline]", "values": [{"measurement": "reversibility of MAO-B inhibition", "setting": "[1]", "value": "irreversible"}, {"measurement": "inhibitory strength to MAO-B than that to MAO-A", "setting": "[1]", "value": 103, "unit": "fold"}]}
{"compound": "CCCN[C@H]1CCc2nc(N)sc2C1", "note": "[Compound A, Pramipexole]", "values": [{"measurement": "reduction in the number of revolutions compared with that before treatment", "setting": "[2]; G4, PPX 0.1 mpk P.O. QD", "value": 24, "unit": "%"}]}
{"compound": "C[C@H](NCc1ccc(OCc2cccc(F)c2)cc1)C(N)=O", "note": "[Compound B, Safinamide]", "values": [{"measurement": "effect on dopamine reduction in the MPTP model (FIG. 1)", "setting": "[3]; average dopamine concentration in mouse brain, all dose groups", "value": "improvement effects"}, {"measurement": "dopamine levels in dorsal striatum compared with modeling group G2", "setting": "[3]; compound B group (15 mg/kg i.p. QD 6 weeks)", "value": "significantly higher"}, {"measurement": "elevation in the number of revolutions compared with that before treatment", "setting": "[2]; G3, SAF 15 mpk P.O. QD", "value": 5, "unit": "%"}, {"measurement": "time after discontinuation until physiological function completely restored", "setting": "[1]; after discontinuation", "value": 8, "unit": "h"}, {"measurement": "reversibility of MAO-B inhibition", "setting": "[1]", "value": "reversible"}, {"measurement": "inhibitory strength to MAO-B than that to MAO-A", "setting": "[1]", "value": 5000, "unit": "fold"}, {"measurement": "improvement of movement symptoms (total UPDRS score, LPDRS [sic])", "setting": "[4]; safinamide 100 mg/d in combination with DA receptor agonist", "value": "effective"}, {"measurement": "improvement of movement symptoms (total UPDRS score, LPDRS [sic])", "setting": "[4]; safinamide 200 mg/d in combination with DA receptor agonist", "value": "no effect in improving movement symptoms"}]}
